Data as given in ChEMBL document CHEMBL3396954, “Synthesis and in vitro biological evaluation of dihydroartemisinyl-chalcone esters” (Eur J Med Chem, 2015).

Assays:
Plasmodium falciparum [1] = experiment: Antimalarial activity against chloroquine-sensitive Plasmodium falciparum 3D7 assessed as inhibition of parasite proliferation after 96 hrs by SYBR Green I-based fluorescence method; type: functional, organism-based; conditions: 3D7, 96 h
Plasmodium falciparum [2] = experiment: Antimalarial activity against chloroquine-resistant Plasmodium falciparum W2 assessed as inhibition of parasite proliferation after 96 hrs by SYBR Green I-based fluorescence method; type: functional, organism-based; conditions: W2, 96 h
[3] = Resistance index, ratio of IC50 for chloroquine-resistant Plasmodium falciparum W2 to IC50 for chloroquine-sensitive Plasmodium falciparum 3D7; type: functional
[4] = Cytotoxicity against human WI38 cells assessed as inhibition of proliferation after 24 hrs by SRB assay; type: cell-based; conditions: WI-38, 24 h
[5] = Selectivity index, ratio of IC50 for human WI38 cells to IC50 for chloroquine-sensitive Plasmodium falciparum 3D7; type: toxicity, cell-based, WI-38; conditions: read-out: Ratio IC50
TK-10 = experiment: Anticancer activity against human TK10 cells assessed as inhibition of cell growth after 24 hrs by SRB assay; type: functional, cell-based; conditions: TK-10, 24 h
[6] = Anticancer activity against human UACC62 cells assessed as inhibition of cell growth after 24 hrs by SRB assay; type: functional, cell-based; conditions: UACC-62, 24 h
MCF7 [7] = experiment: Anticancer activity against human MCF7 cells assessed as inhibition of cell growth after 24 hrs by SRB assay; type: functional, cell-based; conditions: MCF7, 24 h
WI-38 = experiment: Selectivity index, ratio of IC50 for human WI38 cells to IC50 for human TK10 cells; type: functional
UACC-62 = experiment: Selectivity index, ratio of IC50 for human WI38 cells to IC50 for human UACC62 cells; type: functional
MCF7 [8] = experiment: Selectivity index, ratio of IC50 for human WI38 cells to IC50 for human MCF7 cells; type: functional
[9] = Selectivity index, ratio of IC50 for chloroquine-resistant Plasmodium falciparum W2 to IC50 for human TK10 cells; design: species or system TK-10
[10] = Selectivity index, ratio of IC50 for chloroquine-resistant Plasmodium falciparum W2 to IC50 for human UACC62 cells; design: species or system UACC-62
[11] = Selectivity index, ratio of IC50 for chloroquine-resistant Plasmodium falciparum W2 to IC50 for human MCF7 cells

Row | Compound | IC50 (Plasmodium falciparum [1]) [µM] | IC50 (Plasmodium falciparum [2]) [µM] | Ratio IC50 [3] | IC50 [4] [µM] | selectivity ratio [5] | IC50 (TK-10) [µM] | IC50 [6] [µM] | IC50 (MCF7 [7]) [µM] | Ratio IC50 (WI-38) | Ratio IC50 (UACC-62) | Ratio IC50 (MCF7 [8]) | Ratio IC50 [9] | Ratio IC50 [10] | Ratio IC50 [11]
1 | COc1ccc(C(=O)/C=C/c2ccc(C(=O)OC3O[C@@H]4O[C@]5(C)CC[C@H]6[C@H](C)CC[C@@H]([C@H]3C)[C@@]46OO5)cc2)cc1[N+](=O)[O-] (stereo partly drawn) | 0.00587 | 0.00566 | 1 | > 100 | > 17000 | 17 | 7.58 | 2.9 | >6 | >13 | >34 | >3010 | >1340 | >512
2 | COc1ccc(C(=O)/C=C/c2ccc(C(=O)OC3O[C@@H]4O[C@]5(C)CC[C@H]6[C@H](C)CC[C@@H]([C@H]3C)[C@@]46OO5)cc2)c(OC)c1 (stereo partly drawn) | 0.00302 | 0.00204 | 0.7 | > 100 | > 33100 | 22 | 4.33 | 1.02 | >5 | >23 | >100 | >10799 | >2123 | >500
3 | COc1ccc(C(=O)/C=C/c2ccc(C(=O)O)cc2)cc1OC | 0.0108 | 0.0108 | 1 | 67.4 | 6.2 | 18.9 | 7.87 | 8.88 | 3.6 | 8.6 | 7.6 | 1.7 | 0.7 | 0.8
4 | Cc1ccc(C(=O)/C=C/c2ccc(C(=O)O)cc2)o1 | 0.0183 | 0.0173 | 0.9 | 32 | 1.7 | 90 | 58 | 19.7 | 0.4 | 0.6 | 1.6 | 5.2 | 3.3 | 1.1
5 | COc1ccc(C(=O)/C=C/c2ccc(C(=O)OC3O[C@@H]4O[C@]5(C)CC[C@H]6[C@H](C)CC[C@@H]([C@H]3C)[C@@]46OO5)cc2)cc1OC (stereo partly drawn) | 0.00336 | 0.00146 | 0.4 | > 100 | > 29800 | 5.99 | 5.19 | 3.4 | >17 | >19 | >29 | >4105 | >3556 | >2329
6 | C[C@H]1[C@@H](OC(=O)c2ccc(/C=C/C(=O)c3ccc(Cl)c(Cl)c3Cl)cc2)O[C@@H]2O[C@]3(C)CC[C@H]4[C@H](C)CC[C@@H]1[C@@]24OO3 | 0.0107 | 0.00584 | 0.5 | 61.9 | 5800 | 53.7 | 28.5 | 14.9 | 1.2 | 2.2 | 4.2 | 9198.6 | 4873.3 | 2549.7
7 | C[C@@H]1CC[C@H]2[C@@H](C)C(OC(=O)c3ccc(/C=C/C(=O)c4ccccc4)cc3)O[C@@H]3O[C@]4(C)CC[C@@H]1[C@]32OO4 (stereo partly drawn) | 0.00973 | 0.0106 | 1.1 | > 100 | > 10300 | 8.32 | 5.35 | 3.59 | >12 | >19 | >28 | >786 | >505 | >339
8 | CCN(CC)CCCC(C)Nc1ccnc2cc(Cl)ccc12 (stereo not drawn) [CHLOROQUINE] |  |  |  | 3.63 |  |  |  |  |  |  |  |  |  | 
9 | C[C@H]1[C@@H](O)O[C@@H]2O[C@@]3(C)CC[C@H]4[C@H](C)CC[C@@H]1[C@@]24OO3 [ARTENIMOL] | 0.00145 | 0.00131 | 0.9 |  |  |  |  |  |  |  |  |  |  | 
10 | O=C(O)c1ccc(/C=C/C(=O)c2ccc(Cl)c(Cl)c2Cl)cc1 | 0.041 | 0.0622 | 1.5 | 20.4 | 0.5 | 23.6 | 19.7 | 8.73 | 0.9 | 1 | 2.3 | 0.4 | 0.3 | 0.1
11 | C=C1C(=O)O[C@@H]2C3O[C@]3(C)CC/C=C(\C)CC[C@@H]12 (stereo partly drawn) |  |  |  |  |  | 3.71 | 9.71 | 2.4 |  |  |  |  |  | 
12 | COc1ccc(C(=O)/C=C/c2ccc(C(=O)O)cc2)cc1[N+](=O)[O-] | 0.0407 | 0.0312 | 0.8 | 29 | 0.7 | 21.1 | 13.4 | 9.52 | 1.4 | 2.2 | 3 | 0.7 | 0.4 | 0.3
13 | Cc1ccc(C(=O)/C=C/c2ccc(C(=O)O[C@@H]3O[C@@H]4O[C@]5(C)CC[C@H]6[C@H](C)CC[C@@H]([C@H]3C)[C@@]46OO5)cc2)o1 | 0.00198 | 0.00147 | 0.7 | 72.2 | 36500 | 3.6 | 3.29 | 3.42 | 20 | 21.9 | 21.1 | 2451.7 | 2240.1 | 2325.9
14 | O=C(O)c1ccc(/C=C/C(=O)c2ccccc2)cc1 | 0.0295 | 0.0308 | 1 | > 100 | > 3.4 | 29.8 | 13.9 | 11.9 | >3 | >7 | >8 | >1 | >0.5 | >0.4
15 | CC[C@H]1CN2CCc3cc(OC)c(OC)cc3[C@@H]2C[C@@H]1C[C@H]1NCCc2cc(OC)c(OC)cc21 [EMETINE] |  |  |  | 0.05 |  |  |  |  |  |  |  |  |  | 
16 | COc1ccc(C(=O)/C=C/c2ccc(C(=O)O)cc2)c(OC)c1 | 0.0148 | 0.0148 | 1 | 48.6 | 3.3 | 59.6 | 6.75 | 28.1 | 0.8 | 7.2 | 1.7 | 4 | 0.5 | 1.9
17 | C[C@H]1[C@H](OC(=O)CCC(=O)O)O[C@@H]2O[C@@]3(C)CC[C@H]4[C@H](C)CC[C@@H]1[C@@]24OO3 [ARTESUNATE] | 0.004 | 0.00571 |  |  |  |  |  |  |  |  |  |  |  | 
